# Earlier results in patent US10188610B2, “Prolonged-release diphenidol composition” (INVEKRA, S.A.P.I. DE C.V., priority 2013, dated 2019).
# Counter-ions that a name gives are not always drawn.
# Details: after oral administration
smiles,measurement,value
"OC(CCCN1CCCCC1)(c1ccccc1)c1ccccc1 [Diphenidol hydrochloride, α,α-diphenil-1-piperidinebutanol]",half life,4 h
